# Reference: patent publication US9994587B2, “HIV protease inhibitors” (priority 2014, dated 2018)
# Biological target: T1, wildtype HIV-1 protease (Human immunodeficiency virus type 1 group M subtype B, UniProt P04585)
# T1 construct: preincubated with the HIV-1 protease (wild type) enzyme in assay buffer; made in house; host or cells: Escherichia coli
# Assay: Assay for inhibition of microbial expressed HIV protease (Pepcleav)
# Type: biochemical
# Conditions: wild type HIV-1 protease 20 pM, peptide substrate 400 micromolar, pH 5.5; mean of at least two independent experiments
# How it was run: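 E. coli-expressed enzyme preincubated with inhibitor 30 min at room temperature in 50 mM sodium acetate pH 5.5, 100 mM NaCl, 0.1% BSA, then 400 micromolar peptide substrate added with 20 picomolar protease (final), 1 h at 30° C. Product quantified by LC-MS/MS peak area after formic acid/indinavir quench.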
row,SMILES,IC50 [nM]
1,"COC(=O)N[C@H](C(=O)Nc1ccccc1CC[C@@H]1CNC[C@@H](COc2ccc(Br)cc2)O1)C(c1ccccc1)c1ccccc1 [Example 9, methyl N-[(1S)-1-benzhydryl-2-[[2-[2-[(2R,6S)-6-[(4-bromophenoxy)methyl]morpholin-2-yl]ethyl]phenyl]amino]-2-oxo-ethyl]carbamate]",18
2,"COC(=O)N[C@H](C(=O)Nc1cc(F)ccc1CC[C@@H]1CNC[C@@H](COc2ccc(C#N)cc2)O1)C(c1ccccc1)c1ccccc1 [Example 72, N-[2-(2-{(2R,6S)-6-[(4-cyanophenoxy)methyl]morpholin-2-yl}ethyl)-5-fluorophenyl]-Nα-(methoxycarbonyl)-β-phenyl-L-phenylalaninamide]",23
3,"COC(=O)N[C@H](C(=O)Nc1ccccc1CC[C@@H]1CNC[C@@H](COc2ccc(C(F)(F)F)cc2)O1)C(c1ccccc1)c1ccccc1 [Example 44, N-α-(methoxycarbonyl)-β-phenyl-N-(2-{2-[(2R,6S)-6-{[4-(trifluoromethyl)phenoxy]methyl}morpholin-2-yl]ethyl}phenyl)-L-phenylalaninamide]",14
4,"COC(=O)N[C@H](C(=O)Nc1ccccc1CC[C@@H]1CNC[C@@H](CSc2ncccc2Cl)O1)C(c1ccccc1)c1ccccc1 [Example 54, N-(2-{2-[(2R,6S)-6-{[(3-chloropyridin-2-yl)sulfanyl]methyl}morpholin-2-yl]ethyl}phenyl)-Nα-(methoxycarbonyl)-β-phenyl-L-phenylalaninamide]",0.93
5,"COC(=O)N[C@H](C(=O)Nc1ccccc1CC[C@@H]1CNC[C@@H](CSc2cccc(Br)c2)O1)C(c1ccccc1)c1ccccc1 [Example 20, methyl N-[(1S)-1-benzhydryl-2-[[2-[2-[(2R,6S)-6-[(3-bromophenyl)sulfanylmethyl]morpholin-2-yl]ethyl]phenyl]amino]-2-oxo-ethyl]carbamate]",2.9
6,"COC(=O)N[C@H](C(=O)Nc1ccccc1CC[C@@H]1CNC[C@@H](COc2ccc(S(C)(=O)=O)cc2C)O1)C(c1ccccc1)c1ccccc1 [Example 28, methyl N-[(1S)-1-benzhydryl-2-[[2-[2-[(2R,6S)-6-[(2-methyl-4-methylsulfonyl-phenoxy)methyl]morpholin-2-yl]ethyl]phenyl]amino]-2-oxo-ethyl]carbamate]",18
7,"COC(=O)N[C@H](C(=O)Nc1ccccc1CC[C@@H]1CNC[C@@H](COc2cccc3cn[nH]c23)O1)C(c1ccccc1)c1ccccc1 [Example 41, N-[2-(2-{(2R,6S)-6-[(1H-indazol-7-yloxy)methyl]morpholin-2-yl}ethyl)phenyl]-Na-(methoxycarbonyl)-b-phenyl-L-phenylalaninamide]",26
8,"COC(=O)N[C@H](C(=O)Nc1ccccc1CC[C@@H]1CNC[C@@H](CSc2ccc(Cl)cc2C)O1)C(c1ccccc1)c1ccccc1 [Example 26, methyl N-[(1S)-1-benzhydryl-2-[[2-[2-[(2R,6S)-6-[(4-chloro-2-methyl-phenyl)sulfanylmethyl]morpholin-2-yl]ethyl]phenyl]amino]-2-oxo-ethyl]carbamate]",1.3
9,"COC(=O)N[C@H](C(=O)Nc1ccccc1CC[C@@H]1CNC[C@@H](COc2ccccc2F)O1)C(c1ccccc1)c1ccccc1 [Example 49, N-[2-(2-{(2R,6S)-6-[(2-fluorophenoxy)methyl]morpholin-2-yl}ethyl)phenyl]-Nα-(methoxycarbonyl)-β-phenyl-L-phenylalaninamide]",14
10,"COC(=O)N[C@H](C(=O)Nc1ccccc1C[C@H]1CNC[C@@H](COc2ccc(C#N)cc2)O1)C(c1ccccc1)c1ccccc1 [Example 117, N-[2-({(2S,6S)-6-[(4-cyanophenoxy)methyl]morpholin-2-yl}methyl)phenyl]-Nα-(methoxycarbonyl)-β-phenyl-L-phenylalaninamide]",180
11,"COC(=O)N[C@H](C(=O)Nc1cccc(F)c1CC[C@@H]1CNC[C@@H](COc2ccc(C#N)cc2)O1)C(c1ccccc1)c1ccccc1 [Example 71, N-[2-(2-{(2R,6S)-6-[(4-cyanophenoxy)methyl]morpholin-2-yl}ethyl)-3-fluorophenyl]-Nα-(methoxycarbonyl)-β-phenyl-L-phenylalaninamide]",7.4
12,"COC(=O)N[C@H](C(=O)Nc1ccccc1CC[C@@H]1CNC[C@@H](CSc2ccc(Cl)cc2)O1)[C@@H](c1ccccc1)c1cccnc1 [Example 66, (βS)—N-(2-{2-[(2R,6S)-6-{[(4-chlorophenyl)sulfanyl]methyl}morpholin-2-yl]ethyl}phenyl)-Nα-(methoxycarbonyl)-β-pyridin-3-yl-L-phenylalaninamide]",0.2
13,"COC(=O)N[C@H](C(=O)Nc1ccccc1CC[C@@H]1CNC[C@@H](CSc2ccc(Cl)cc2)O1)[C@@H](c1ccccc1)c1c[nH]c2ncccc12 [Example 67, (βS)-N-(2-{2-[(2R,6S)-6-{[(4-chlorophenyl)sulfanyl]methyl}morpholin-2-yl]ethyl}phenyl)-Nα-(methoxycarbonyl)-β-1H-pyrrolo[2,3-b]pyridin-3-yl-L-phenylalaninamide]",0.11
14,"COC(=O)N[C@H](C(=O)Nc1ccccc1CC[C@@H]1CNC[C@@H](CSc2ncnc3c2cnn3C)O1)C(c1ccccc1)c1ccccc1 [Example 36, methyl N-[(1S)-1-benzhydryl-2-[[2-[2-[(2R,6S)-6-[(1-methylpyrazolo[3,4-d]pyrimidin-4-yl)sulfanylmethyl]morpholin-2-yl]ethyl]phenyl]amino]-2-oxo-ethyl]carbamate]",0.93
15,"COC(=O)N[C@H](C(=O)Nc1ccccc1CC[C@@H]1CNC[C@@H](CS(=O)(=O)c2ccc(Cl)cc2)O1)C(c1ccccc1)c1ccccc1 [Example 56, methyl N-[(1S)-1-benzhydryl-2-[[2-[2-[(2R,6S)-6-[(4-chlorophenyl)sulfonylmethyl]morpholin-2-yl]ethyl]phenyl]amino]-2-oxo-ethyl]carbamate]",110
16,"N[C@H](C(=O)Nc1cncc(F)c1CC[C@@H]1CNC[C@@H](COC(=O)N2CCOCC2)O1)C(c1ccc(F)cc1)c1ccc(F)cc1 [Example 105, {(2S,6R)-6-[2-(3-fluoro-5-{[4-fluoro-β-(4-fluorophenyl)-L-phenylalanyl]amino}pyridin-4-yl)ethyl]morpholin-2-yl}methyl morpholine-4-carboxylate]",29
17,"COC(=O)N[C@H](C(=O)Nc1c(CC[C@@H]2CNC[C@@H](COc3ccc(C#N)cc3)O2)cc[nH]c1=O)C(c1ccccc1)c1ccccc1 [Example 86, N-[4-(2-{(2R,6S)-6-[(4-cyanophenoxy)methyl]morpholin-2-yl}ethyl)-2-oxo-1,2-dihydropyridin-3-yl]-Nα-(methoxycarbonyl)-β-phenyl-L-phenylalaninamide]",4.1
18,"COC(=O)N[C@H](C(=O)Nc1c(F)cccc1CC[C@@H]1CNC[C@@H](CSc2nc3cc(F)c(Cl)cc3[nH]2)O1)C(c1ccccc1)c1ccccc1 [Example 77, N-(2-{2-[(2R,6S)-6-{[(6-chloro-5-fluoro-1H-benzimidazol-2-yl)sulfanyl]methyl}morpholin-2-yl]ethyl}-6-fluorophenyl)-Nα-(methoxycarbonyl)-β-phenyl-L-phenylalaninamide]",11
19,"COC(=O)N[C@H](C(=O)Nc1ccccc1CC[C@@H]1CNC[C@@H](COc2ccc(-n3cncn3)cc2)O1)C(c1ccccc1)c1ccccc1 [Example 15, methyl N-[(1S)-1-benzhydryl-2-oxo-2-[[2-[2-[(2R,6S)-6-[[4-(1,2,4-triazol-1-yl)phenoxy]methyl]morpholin-2-yl]ethyl]phenyl]amino]ethyl] carbamate]",12
